What follows are compounds tested against T1, human TLR7 (Homo sapiens, UniProt Q9NYK1) (assay: HEK293-Blue-hTLR-7 cells assay (SEAP reporter, R848 stimulation)). Conditions: HEK293-Blue-hTLR7 cells, R848, 20 hrs; read-out: HEK/hTLR7 IC50.
T1 construct: host or cells: HEK293 (HEK-Blue hTLR7)
T1 sequence (Q9NYK1 27-1049): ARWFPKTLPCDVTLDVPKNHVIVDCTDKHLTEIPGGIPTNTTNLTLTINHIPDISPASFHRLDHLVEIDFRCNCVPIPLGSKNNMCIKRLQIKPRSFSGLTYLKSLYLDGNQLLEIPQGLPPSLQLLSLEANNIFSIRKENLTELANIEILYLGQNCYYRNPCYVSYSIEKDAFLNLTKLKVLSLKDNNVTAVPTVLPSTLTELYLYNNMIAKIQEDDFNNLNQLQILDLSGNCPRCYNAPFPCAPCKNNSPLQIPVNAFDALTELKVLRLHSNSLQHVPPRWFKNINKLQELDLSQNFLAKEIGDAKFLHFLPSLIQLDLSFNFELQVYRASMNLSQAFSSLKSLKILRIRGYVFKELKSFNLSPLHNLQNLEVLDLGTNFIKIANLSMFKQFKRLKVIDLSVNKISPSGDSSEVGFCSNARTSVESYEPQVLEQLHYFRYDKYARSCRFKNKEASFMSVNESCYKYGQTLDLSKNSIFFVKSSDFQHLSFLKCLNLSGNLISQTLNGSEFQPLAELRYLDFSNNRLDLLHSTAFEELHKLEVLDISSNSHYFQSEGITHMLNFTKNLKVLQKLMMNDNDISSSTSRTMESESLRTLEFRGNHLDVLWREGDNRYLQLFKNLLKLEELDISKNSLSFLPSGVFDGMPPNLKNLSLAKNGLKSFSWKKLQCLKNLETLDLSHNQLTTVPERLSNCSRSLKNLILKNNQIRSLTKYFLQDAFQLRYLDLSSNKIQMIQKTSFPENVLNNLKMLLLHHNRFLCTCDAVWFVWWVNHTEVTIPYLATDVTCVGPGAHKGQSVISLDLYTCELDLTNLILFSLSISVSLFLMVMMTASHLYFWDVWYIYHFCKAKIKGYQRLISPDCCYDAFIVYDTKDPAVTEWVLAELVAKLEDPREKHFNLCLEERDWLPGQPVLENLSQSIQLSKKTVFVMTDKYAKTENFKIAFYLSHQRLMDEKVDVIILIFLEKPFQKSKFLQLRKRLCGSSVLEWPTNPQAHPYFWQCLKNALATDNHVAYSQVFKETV
Type: cell-based
Outline: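 HEK293-Blue-hTLR7 cells (NF-κB/AP-1-driven SEAP reporter) were stimulated with R848 alongside serially diluted compound at 1% final DMSO for 20 h at 37 °C. Supernatant SEAP was then developed with QUANTI-Blue for 2 h at 37 °C and absorbance read at 620–655 nm; antagonism is measured as reduced reporter signal.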

Row | SMILES | IC50 [nM]
1 | C[C@@H]1CN(c2ccc(C#N)c3ncccc23)C[C@H](CN2CCN(c3ccnc(N4CC(N)C4)n3)CC2)O1 [Example 23, 5-[(2S,6R)-2-[[4-[2-(3-aminoazetidin-1-yl)pyrimidin-4-yl]piperazin-1-yl]methyl]-6-methyl-morpholin-4-yl]quinoline-8-carbonitrile] | 50
2 | C[C@@H]1CN(c2ccc(C#N)c3ncccc23)C[C@H](CN2CCN(c3ccnc(N[C@H]4CNC[C@H]4F)n3)CC2)O1 [Example 24, 5-[(2S,6R)-2-[[4-[2-[[(3S,4R)-4-fluoropyrrolidin-3-yl]amino]pyrimidin-4-yl]piperazin-1-yl]methyl]-6-methyl-morpholin-4-yl]quinoline-8-carbonitrile] | 38
3 | C[C@@H]1CN(c2ccc(C#N)c3ncccc23)C[C@H](CN2CCN(c3ccnc(N4CCNCC(O)C4)n3)CC2)O1 (stereo partly drawn) [Example 25, 5-[(2S,6R)-2-[[4-[2-(6-hydroxy-1,4-diazepan-1-yl)pyrimidin-4-yl]piperazin-1-yl]methyl]-6-methyl-morpholin-4-yl]quinoline-8-carbonitrile] | 26
4 | CO[C@H]1CN(c2nccc(N3CCN(C[C@H]4CN(c5ccc(C#N)c6ncccc56)C[C@@H](C)O4)CC3)n2)C[C@@H]1N [Example 26, 5-[(2S,6R)-2-[[4-[2-trans-(3-amino-4-methoxy-pyrrolidin-1-yl)pyrimidin-4-yl]piperazin-1-yl]methyl]-6-methyl-morpholin-4-yl]quinoline-8-carbonitrile] | 8
5 | C[C@@H]1CN(c2ccc(C#N)c3ncccc23)C[C@H](CN2CCN(c3ccnc(N4CCC(N)CC4)n3)CC2)O1 [Example 27, 5-[(2S,6R)-2-[[4-[2-(4-amino-1-piperidyl)pyrimidin-4-yl]piperazin-1-yl]methyl]-6-methyl-morpholin-4-yl]quinoline-8-carbonitrile] | 15
6 | C[C@@H]1CN(c2ccc(C#N)c3ncccc23)C[C@H](CN2CCN(c3ccnc(NC4CNC4)n3)CC2)O1 [Example 28, 5-[(2S,6R)-2-[[4-[2-(azetidin-3-ylamino)pyrimidin-4-yl]piperazin-1-yl]methyl]-6-methyl-morpholin-4-yl]quinoline-8-carbonitrile] | 11
7 | C[C@@H]1CN(c2ccc(C#N)c3ncccc23)C[C@H](CN2CCN(c3ccnc(N4CCN[C@@H](CO)C4)n3)CC2)O1 [Example 29, 5-[(2S,6R)-2-[[4-[2-[(3R)-3-(hydroxymethyl)piperazin-1-yl]pyrimidin-4-yl]piperazin-1-yl]methyl]-6-methyl-morpholin-4-yl]quinoline-8-carbonitrile] | 16
8 | C[C@@H]1CN(c2ccc(C#N)c3ncccc23)C[C@H](CN2CCN(c3ccnc(OCCN(C)C)n3)CC2)O1 [Example 30, 5-[(2S,6R)-2-[[4-[2-[2-(dimethylamino)ethoxy]pyrimidin-4-yl]piperazin-1-yl]methyl]-6-methyl-morpholin-4-yl]quinoline-8-carbonitrile] | 16
9 | C[C@@H]1CN(c2ccc(C#N)c3ncccc23)C[C@H](CN2CCN(c3ccnc(N4CCN(C(=O)[C@@H]5CCCN5)CC4)n3)CC2)O1 [Example 31, 5-[(2R,6S)-2-methyl-6-[[4-[2-[4-[(2S)-pyrrolidine-2-carbonyl]piperazin-1-yl]pyrimidin-4-yl]piperazin-1-yl]methyl]morpholin-4-yl]quinoline-8-carbonitrile] | 18
10 | C[C@@H]1CN(c2ccc(C#N)c3ncccc23)C[C@H](CN2CCN(c3ccnc(N4CCN(C(=O)CN(C)C)CC4)n3)CC2)O1 [Example 32, 5-[(2S,6R)-2-[[4-[2-[4-[2-(dimethylamino)acetyl]piperazin-1-yl]pyrimidin-4-yl]piperazin-1-yl]methyl]-6-methyl-morpholin-4-yl]quinoline-8-carbonitrile] | 6
11 | C[C@@H]1CN(c2ccc(C#N)c3ncccc23)C[C@H](CN2CCN(c3cccc(N4CCN(C)CC4)n3)CC2)O1 [Example 33, 5-[(2R,6S)-2-methyl-6-[[4-[6-(4-methylpiperazin-1-yl)-2-pyridyl]piperazin-1-yl]methyl]morpholin-4-yl]quinoline-8-carbonitrile] | 24
12 | C[C@@H]1CN(c2ccc(C#N)c3ncccc23)C[C@H](CN2CCN(c3ccnc(N4CCN(C(=O)C5CCN5)CC4)n3)CC2)O1 (stereo partly drawn) [Example 34, 5-[(2S,6R)-2-[[4-[2-[4-(azetidine-2-carbonyl)piperazin-1-yl]pyrimidin-4-yl]piperazin-1-yl]methyl]-6-methyl-morpholin-4-yl]quinoline-8-carbonitrile] | 27
13 | C[C@@H]1CN(c2ccc(C#N)c3ncccc23)C[C@H](CN2CCN(c3cccc(N[C@H]4CNC[C@@H]4F)n3)CC2)O1 [Example 35, 5-[(2S,6R)-2-[[4-[6-[[(3S,4S)-4-fluoropyrrolidin-3-yl]amino]-2-pyridyl]piperazin-1-yl]methyl]-6-methyl-morpholin-4-yl]quinoline-8-carbonitrile] | 65
14 | C[C@@H]1CN(c2ccc(C#N)c3ncccc23)C[C@H](CN2CCN(c3cccc(N4CCC(N)CC4)n3)CC2)O1 [Example 36, 5-[(2S,6R)-2-[[4-[6-(4-amino-1-piperidyl)-2-pyridyl]piperazin-1-yl]methyl]-6-methyl-morpholin-4-yl]quinoline-8-carbonitrile] | 28
15 | C[C@@H]1CN(c2ccc(C#N)c3ncccc23)C[C@H](CN2CCN(c3cccc(N[C@H]4CNC[C@H]4F)n3)CC2)O1 [Example 37, 5-[(2S,6R)-2-[[4-[6-[[(3S,4R)-4-fluoropyrrolidin-3-yl]amino]-2-pyridyl]piperazin-1-yl]methyl]-6-methyl-morpholin-4-yl]quinoline-8-carbonitrile] | 70
16 | C[C@@H]1CN(c2ccc(C#N)c3ncccc23)C[C@H](CN2CCN(c3cccc(NC4CNC4)n3)CC2)O1 [Example 38] | 16
17 | C[C@@H]1CN(c2ccc(C#N)c3ncccc23)C[C@H](CN2CCN(c3cccc(N4CC(N)C(F)C4)n3)CC2)O1 (stereo partly drawn) [Example 40, 5-[(2S,6R)-2-[[4-[6-(3-amino-4-fluoro-pyrrolidin-1-yl)-2-pyridyl]piperazin-1-yl]methyl]-6-methyl-morpholin-4-yl]quinoline-8-carbonitrile] | 35
18 | C[C@@H]1CN(c2ccc(C#N)c3ncccc23)C[C@H](CN2CCN(c3cccc(N4CCNCC(O)C4)n3)CC2)O1 (stereo partly drawn) [Example 41, 5-[(2S,6R)-2-[[4-[6-(6-hydroxy-1,4-diazepan-1-yl)-2-pyridyl]piperazin-1-yl]methyl]-6-methyl-morpholin-4-yl]quinoline-8-carbonitrile] | 81
19 | CO[C@H]1CN(c2cccc(N3CCN(C[C@H]4CN(c5ccc(C#N)c6ncccc56)C[C@@H](C)O4)CC3)n2)C[C@H]1N [Example 42, 5-[(2S,6R)-2-[[4-[6-[(3R,4S)-3-amino-4-methoxy-pyrrolidin-1-yl]-2-pyridyl]piperazin-1-yl]methyl]-6-methyl-morpholin-4-yl]quinoline-8-carbonitrile] | 23
20 | COC1CN(c2ccc(N3CCN(C[C@H]4CN(c5ccc(C#N)c6ncccc56)C[C@@H](C)O4)CC3)cn2)CC1N (stereo partly drawn) [Example 43, 5-[(2S,6R)-2-[[4-[6-(3-amino-4-methoxy-pyrrolidin-1-yl)-3-pyridyl]piperazin-1-yl]methyl]-6-methyl-morpholin-4-yl]quinoline-8-carbonitrile] | 22
21 | C[C@@H]1CN(c2ccc(C#N)c3ncccc23)C[C@H](CN2CCN(c3ccc(N4CC(N)C(F)C4)nc3)CC2)O1 (stereo partly drawn) [Example 44, 5-[(2S,6R)-2-[[4-[6-(3-amino-4-fluoro-pyrrolidin-1-yl)-3-pyridyl]piperazin-1-yl]methyl]-6-methyl-morpholin-4-yl]quinoline-8-carbonitrile] | 28
22 | C[C@@H]1CN(c2ccc(C#N)c3ncccc23)C[C@H](CN2CCN(c3nc(N4CCNCC4)ncc3F)CC2)O1 [Example 45, 5-[(2S,6R)-2-[[4-(5-fluoro-2-piperazin-1-yl-pyrimidin-4-yl)piperazin-1-yl]methyl]-6-methyl-morpholin-4-yl]quinoline-8-carbonitrile] | 15
23 | Cc1nc(N2CCNCC2)nc(N2CCN(C[C@H]3CN(c4ccc(C#N)c5ncccc45)C[C@@H](C)O3)CC2)c1C [Example 46, 5-[(2S,6R)-2-[[4-(5,6-dimethyl-2-piperazin-1-yl-pyrimidin-4-yl)piperazin-1-yl]methyl]-6-methyl-morpholin-4-yl]quinoline-8-carbonitrile] | 18

Reference: patent US20210395239A1 (Hoffmann-La Roche Inc., priority 2018, published 2021)
